What was measured:
Assay in all cases: radiometric filter-binding kinase assay, Kinase HotSpot
Conditions in all cases: compound 0.5 µM; ATP 10 µM
[1] = biological target: ACVRL1 (human) (UniProt P37023)
[2] = biological target: AKT3 (human) (UniProt Q9Y243)
[3] = biological target: AXL (human) (UniProt P30530)
[4] = biological target: CAMK4 (human) (UniProt Q16566)
[5] = biological target: CDK9 CCNK (human) (UniProt O75909+P50750)
[6] = biological target: CHUK (human) (UniProt O15111)
[7] = biological target: CSNK1D (human) (UniProt P48730)
Sequence of CSNK1D (human) (P48730 whole entry, looked up): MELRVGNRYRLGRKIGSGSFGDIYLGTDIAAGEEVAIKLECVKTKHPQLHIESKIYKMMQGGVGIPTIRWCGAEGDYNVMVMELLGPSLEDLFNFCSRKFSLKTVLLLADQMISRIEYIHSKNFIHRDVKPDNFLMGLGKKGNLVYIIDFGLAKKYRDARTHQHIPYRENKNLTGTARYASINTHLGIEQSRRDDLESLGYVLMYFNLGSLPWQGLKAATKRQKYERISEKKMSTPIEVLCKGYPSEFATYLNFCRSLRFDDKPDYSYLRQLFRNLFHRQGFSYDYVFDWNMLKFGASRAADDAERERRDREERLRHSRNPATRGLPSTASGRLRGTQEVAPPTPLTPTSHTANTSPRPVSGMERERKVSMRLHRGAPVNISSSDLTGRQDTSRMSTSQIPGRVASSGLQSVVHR

[8] = biological target: CSNK1G1 (human) (UniProt Q9HCP0)
Sequence of CSNK1G1 (human) (Q9HCP0 whole entry, looked up): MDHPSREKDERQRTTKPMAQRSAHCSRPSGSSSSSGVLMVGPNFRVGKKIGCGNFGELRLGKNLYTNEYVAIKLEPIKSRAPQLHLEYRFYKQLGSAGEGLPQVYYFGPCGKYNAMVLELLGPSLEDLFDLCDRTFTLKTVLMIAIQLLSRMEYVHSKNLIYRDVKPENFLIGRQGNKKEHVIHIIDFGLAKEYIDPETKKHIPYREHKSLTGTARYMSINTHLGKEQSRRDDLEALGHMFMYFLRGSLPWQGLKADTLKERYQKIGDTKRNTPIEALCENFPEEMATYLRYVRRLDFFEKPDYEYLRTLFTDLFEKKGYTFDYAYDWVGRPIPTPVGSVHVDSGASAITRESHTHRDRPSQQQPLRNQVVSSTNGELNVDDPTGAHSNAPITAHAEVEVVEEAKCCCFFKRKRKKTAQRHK

[9] = biological target: CSNK2A2 (human) (UniProt P19784)
[10] = biological target: DAPK1 (human) (UniProt P53355)
[11] = biological target: DDR2 (human) (UniProt Q16832)
[12] = biological target: DSTYK (human) (UniProt Q6XUX3)
[13] = biological target: DYRK1A (human) (UniProt Q13627)
[14] = biological target: DYRK2 (human) (UniProt Q92630)
Sequence of DYRK2 (human) (Q92630 whole entry, looked up): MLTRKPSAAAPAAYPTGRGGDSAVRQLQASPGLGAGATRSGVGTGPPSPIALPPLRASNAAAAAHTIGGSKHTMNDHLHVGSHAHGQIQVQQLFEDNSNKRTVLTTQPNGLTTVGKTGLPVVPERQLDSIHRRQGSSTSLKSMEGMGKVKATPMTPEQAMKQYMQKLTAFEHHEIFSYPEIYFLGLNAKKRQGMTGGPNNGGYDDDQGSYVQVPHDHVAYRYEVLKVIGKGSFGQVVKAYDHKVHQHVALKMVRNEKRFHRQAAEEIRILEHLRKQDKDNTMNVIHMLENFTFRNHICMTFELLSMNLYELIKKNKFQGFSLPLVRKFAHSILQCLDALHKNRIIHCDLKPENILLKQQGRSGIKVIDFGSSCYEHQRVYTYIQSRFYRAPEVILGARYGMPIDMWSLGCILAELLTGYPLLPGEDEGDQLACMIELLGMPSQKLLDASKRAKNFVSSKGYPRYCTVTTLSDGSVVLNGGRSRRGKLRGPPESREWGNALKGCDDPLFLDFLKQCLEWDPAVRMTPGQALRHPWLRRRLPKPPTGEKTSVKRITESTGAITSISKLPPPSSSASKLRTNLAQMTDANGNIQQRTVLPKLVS

[15] = biological target: FYN (human) (UniProt P06241)
[16] = biological target: GRK6 (human) (UniProt P43250)
[17] = biological target: GSK3B (human) (UniProt P49841)
[18] = biological target: HCK (human) (UniProt P08631)
[19] = biological target: IRAK1 (human) (UniProt P51617)
[20] = biological target: JAK2 JH1 JH2 (human) (UniProt O60674)
[21] = biological target: LIMK1 (human) (UniProt P53667)
Sequence of LIMK1 (human) (P53667 whole entry, looked up): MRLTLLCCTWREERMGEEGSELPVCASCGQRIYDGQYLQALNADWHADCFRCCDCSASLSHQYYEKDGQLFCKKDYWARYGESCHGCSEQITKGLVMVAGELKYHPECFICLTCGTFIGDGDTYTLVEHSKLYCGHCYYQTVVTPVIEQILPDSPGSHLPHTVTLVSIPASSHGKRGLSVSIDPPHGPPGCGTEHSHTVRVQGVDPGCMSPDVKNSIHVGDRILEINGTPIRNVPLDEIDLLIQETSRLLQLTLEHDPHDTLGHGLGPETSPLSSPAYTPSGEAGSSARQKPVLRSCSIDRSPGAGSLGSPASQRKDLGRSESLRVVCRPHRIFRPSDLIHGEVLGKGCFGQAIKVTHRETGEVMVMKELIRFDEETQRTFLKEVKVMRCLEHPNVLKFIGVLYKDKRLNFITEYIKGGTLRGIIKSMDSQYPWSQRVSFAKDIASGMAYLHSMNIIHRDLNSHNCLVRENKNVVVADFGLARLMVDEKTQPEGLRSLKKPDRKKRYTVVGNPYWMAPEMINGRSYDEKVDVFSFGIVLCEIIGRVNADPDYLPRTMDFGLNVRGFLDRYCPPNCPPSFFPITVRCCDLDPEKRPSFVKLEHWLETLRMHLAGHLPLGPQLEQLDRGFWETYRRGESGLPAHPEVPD

[22] = biological target: MAPK13 (human) (UniProt O15264)
[23] = biological target: MAPKAPK3 (human) (UniProt Q16644)
[24] = biological target: MARK2 (human) (UniProt Q7KZI7)
[25] = biological target: MARK3 (human) (UniProt P27448)
[26] = biological target: MERTK (human) (UniProt Q12866)
[27] = biological target: MUSK (human) (UniProt O15146)
[28] = biological target: NEK4 (human) (UniProt P51957)
[29] = biological target: NTRK2 (human) (UniProt Q16620)
[30] = biological target: NTRK3 (human) (UniProt Q16288)
[31] = biological target: OXSR1 (human) (UniProt O95747)
[32] = biological target: PHKG2 (human) (UniProt P15735)
[33] = biological target: PRKG2 (human) (UniProt Q13237)
[34] = biological target: PTK2B (human) (UniProt Q14289)
[35] = biological target: RPS6KA4 KD2 (human) (UniProt O75676)
Sequence of RPS6KA4 KD2 (human) (O75676 whole entry, looked up): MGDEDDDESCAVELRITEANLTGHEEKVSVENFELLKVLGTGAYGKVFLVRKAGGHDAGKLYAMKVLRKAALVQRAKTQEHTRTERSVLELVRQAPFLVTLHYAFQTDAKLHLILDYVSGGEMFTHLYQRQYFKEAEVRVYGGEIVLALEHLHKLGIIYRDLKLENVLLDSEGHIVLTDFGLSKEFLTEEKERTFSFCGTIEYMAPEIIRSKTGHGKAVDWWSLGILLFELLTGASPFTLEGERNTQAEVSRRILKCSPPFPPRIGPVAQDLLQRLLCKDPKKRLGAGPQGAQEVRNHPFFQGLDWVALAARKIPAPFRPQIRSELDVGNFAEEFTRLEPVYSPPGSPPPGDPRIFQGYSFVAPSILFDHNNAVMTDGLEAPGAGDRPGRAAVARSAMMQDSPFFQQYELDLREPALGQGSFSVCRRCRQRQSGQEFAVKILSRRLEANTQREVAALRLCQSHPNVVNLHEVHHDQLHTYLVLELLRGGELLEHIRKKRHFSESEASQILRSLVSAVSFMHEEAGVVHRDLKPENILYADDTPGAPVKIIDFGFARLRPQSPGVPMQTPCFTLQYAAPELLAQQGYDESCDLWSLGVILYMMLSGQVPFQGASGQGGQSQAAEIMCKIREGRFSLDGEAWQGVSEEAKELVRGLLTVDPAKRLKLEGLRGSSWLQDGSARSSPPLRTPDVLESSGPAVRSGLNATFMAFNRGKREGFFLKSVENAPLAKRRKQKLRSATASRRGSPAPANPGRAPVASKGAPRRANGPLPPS

[36] = biological target: STK33 (human) (UniProt Q9BYT3)
[37] = biological target: TAOK2 (human) (UniProt Q9UL54)
[38] = biological target: TAOK3 (human) (UniProt Q9H2K8)
[39] = biological target: TSSK1B (human) (UniProt Q9BXA7)
Sequence of TSSK1B (human) (Q9BXA7 whole entry, looked up): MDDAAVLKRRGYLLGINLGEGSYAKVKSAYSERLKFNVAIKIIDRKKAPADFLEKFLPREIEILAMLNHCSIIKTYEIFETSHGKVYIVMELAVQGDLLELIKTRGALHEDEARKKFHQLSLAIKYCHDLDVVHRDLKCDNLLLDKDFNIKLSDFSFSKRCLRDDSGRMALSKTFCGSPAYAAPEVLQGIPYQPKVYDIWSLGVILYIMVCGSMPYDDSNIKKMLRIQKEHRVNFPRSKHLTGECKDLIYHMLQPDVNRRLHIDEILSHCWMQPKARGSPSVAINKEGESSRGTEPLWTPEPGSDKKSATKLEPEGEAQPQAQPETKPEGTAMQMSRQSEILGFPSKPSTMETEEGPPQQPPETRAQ

[40] = biological target: WEE1 (human) (UniProt P30291)
[41] = biological target: WNK3 (human) (UniProt Q9BYP7)
Sequence of WNK3 (human) (Q9BYP7 whole entry, looked up): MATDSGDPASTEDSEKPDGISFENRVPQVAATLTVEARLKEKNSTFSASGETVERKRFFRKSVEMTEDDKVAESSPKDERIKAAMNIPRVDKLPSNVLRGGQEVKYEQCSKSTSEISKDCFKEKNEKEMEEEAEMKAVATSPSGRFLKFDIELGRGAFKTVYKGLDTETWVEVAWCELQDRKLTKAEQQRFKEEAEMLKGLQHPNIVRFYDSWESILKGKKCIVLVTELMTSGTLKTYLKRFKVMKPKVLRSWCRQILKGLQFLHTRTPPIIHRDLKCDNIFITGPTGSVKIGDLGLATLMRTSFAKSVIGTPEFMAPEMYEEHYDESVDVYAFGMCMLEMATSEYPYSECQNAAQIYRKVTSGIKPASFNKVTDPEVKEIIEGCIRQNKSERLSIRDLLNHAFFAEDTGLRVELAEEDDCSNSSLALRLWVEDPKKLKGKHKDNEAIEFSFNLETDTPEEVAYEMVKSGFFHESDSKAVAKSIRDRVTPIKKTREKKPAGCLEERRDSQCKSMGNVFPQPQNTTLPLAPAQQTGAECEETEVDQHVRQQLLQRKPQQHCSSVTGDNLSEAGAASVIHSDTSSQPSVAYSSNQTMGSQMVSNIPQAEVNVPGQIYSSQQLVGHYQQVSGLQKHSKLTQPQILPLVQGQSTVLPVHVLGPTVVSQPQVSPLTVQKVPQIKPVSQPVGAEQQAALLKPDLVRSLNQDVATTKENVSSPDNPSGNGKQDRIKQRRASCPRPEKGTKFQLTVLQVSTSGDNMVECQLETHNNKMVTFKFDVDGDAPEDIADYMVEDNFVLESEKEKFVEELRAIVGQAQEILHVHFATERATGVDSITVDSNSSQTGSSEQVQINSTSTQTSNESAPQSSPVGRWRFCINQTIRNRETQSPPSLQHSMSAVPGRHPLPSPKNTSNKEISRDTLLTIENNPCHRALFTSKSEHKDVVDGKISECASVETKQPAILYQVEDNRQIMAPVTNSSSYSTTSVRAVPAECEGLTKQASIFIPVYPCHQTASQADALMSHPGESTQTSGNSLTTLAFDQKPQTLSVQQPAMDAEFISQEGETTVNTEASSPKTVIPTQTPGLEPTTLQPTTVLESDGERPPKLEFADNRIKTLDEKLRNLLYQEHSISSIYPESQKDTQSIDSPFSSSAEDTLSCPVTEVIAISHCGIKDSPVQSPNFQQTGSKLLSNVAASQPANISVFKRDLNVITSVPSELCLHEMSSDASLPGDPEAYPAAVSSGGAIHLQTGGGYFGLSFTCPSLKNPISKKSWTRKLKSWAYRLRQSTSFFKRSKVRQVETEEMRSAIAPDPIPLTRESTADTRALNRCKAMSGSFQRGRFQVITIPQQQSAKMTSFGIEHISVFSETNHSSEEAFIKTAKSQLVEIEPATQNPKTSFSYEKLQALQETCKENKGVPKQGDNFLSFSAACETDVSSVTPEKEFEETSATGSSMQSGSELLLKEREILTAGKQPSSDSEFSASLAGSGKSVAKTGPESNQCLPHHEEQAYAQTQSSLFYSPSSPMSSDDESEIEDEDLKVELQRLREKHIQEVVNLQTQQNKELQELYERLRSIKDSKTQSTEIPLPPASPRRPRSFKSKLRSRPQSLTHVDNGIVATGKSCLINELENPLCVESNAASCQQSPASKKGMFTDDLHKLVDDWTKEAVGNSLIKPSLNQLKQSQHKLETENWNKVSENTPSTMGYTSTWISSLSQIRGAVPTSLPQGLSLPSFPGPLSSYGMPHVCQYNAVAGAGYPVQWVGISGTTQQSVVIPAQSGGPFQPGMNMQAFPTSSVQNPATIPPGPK

[42] = biological target: MAPK12 (human) (UniProt P53778)

Compound: N#Cc1c[nH]c2c[nH]/c(=N\Cc3cccnc3)cc2/c1=N\c1ccc(F)c(Cl)c1
- residual activity [1]: 96.9%
- residual activity [2]: 95.1%
- residual activity [3]: 103%
- residual activity [4]: 95.2%
- residual activity [5]: 97.3%
- residual activity [6]: 96.3%
- residual activity [7]: 88.4%
- residual activity [8]: 87%
- residual activity [9]: 75.2%
- residual activity [10]: 102%
- residual activity [11]: 91.9%
- residual activity [12]: 87.3%
- residual activity [13]: 52.7%
- residual activity [14]: 95.5%
- residual activity [15]: 103%
- residual activity [16]: 106%
- residual activity [17]: 99.8%
- residual activity [18]: 92.5%
- residual activity [19]: 114%
- residual activity [20]: 99%
- residual activity [21]: 101%
- residual activity [22]: 101%
- residual activity [23]: 94%
- residual activity [24]: 93.2%
- residual activity [25]: 101%
- residual activity [26]: 67.2%
- residual activity [27]: 55.6%
- residual activity [28]: 71.7%
- residual activity [29]: 101%
- residual activity [30]: 93.2%
- residual activity [31]: 87.7%
- residual activity [32]: 88.3%
- residual activity [33]: 90.9%
- residual activity [34]: 100%
- residual activity [35]: 92%
- residual activity [36]: 87.4%
- residual activity [37]: 86.1%
- residual activity [38]: 99.2%
- residual activity [39]: 84.4%
- residual activity [40]: 74.3%
- residual activity [41]: 92.4%

Compound: NC(=O)c1cccc(-c2cc(Nc3ccc(OC(F)(F)F)cc3)ncn2)c1
- residual activity [1]: 99.2%
- residual activity [2]: 93.5%
- residual activity [3]: 101%
- residual activity [4]: 90.5%
- residual activity [5]: 106%
- residual activity [6]: 95%
- residual activity [7]: 99.1%
- residual activity [8]: 97.8%
- residual activity [9]: 92.7%
- residual activity [10]: 81.1%
- residual activity [11]: 108%
- residual activity [12]: 95.8%
- residual activity [13]: 101%
- residual activity [14]: 78.7%
- residual activity [16]: 101%
- residual activity [17]: 110%
- residual activity [18]: 92.9%
- residual activity [19]: 101%
- residual activity [20]: 104%
- residual activity [21]: 100%
- residual activity [42]: 111%
- residual activity [22]: 98.1%
- residual activity [23]: 98%
- residual activity [24]: 90.8%
- residual activity [25]: 100%
- residual activity [26]: 98.1%
- residual activity [27]: 95.9%
- residual activity [28]: 98%
- residual activity [29]: 96%
- residual activity [30]: 92.7%
- residual activity [31]: 97.9%
- residual activity [32]: 103%
- residual activity [33]: 96.4%
- residual activity [34]: 94.6%
- residual activity [35]: 85.8%
- residual activity [36]: 92.1%
- residual activity [37]: 91%
- residual activity [38]: 107%
- residual activity [39]: 95.4%
- residual activity [40]: 98.9%
- residual activity [41]: 105%

Compound: Cc1cncc2cccc(S(=O)(=O)N3CCCN(C(=O)CN)C[C@H]3C)c12
- residual activity [1]: 99.2%
- residual activity [2]: 98.8%
- residual activity [3]: 98.8%
- residual activity [4]: 90.6%
- residual activity [5]: 103%
- residual activity [6]: 105%
- residual activity [7]: 107%
- residual activity [8]: 92.4%
- residual activity [9]: 99.3%
- residual activity [10]: 97.9%
- residual activity [11]: 103%
- residual activity [12]: 105%
- residual activity [13]: 93.1%
- residual activity [14]: 101%
- residual activity [15]: 94.2%
- residual activity [16]: 85.5%
- residual activity [18]: 96.4%
- residual activity [19]: 135%
- residual activity [20]: 93.9%
- residual activity [21]: 91.9%
- residual activity [42]: 107%
- residual activity [22]: 119%
- residual activity [23]: 98.8%
- residual activity [24]: 89.1%
- residual activity [25]: 98.9%
- residual activity [26]: 95.4%
- residual activity [27]: 88.7%
- residual activity [28]: 95.3%
- residual activity [29]: 102%
- residual activity [30]: 87.5%
- residual activity [31]: 99.4%
- residual activity [32]: 90.5%
- residual activity [33]: 88.1%
- residual activity [34]: 92.5%
- residual activity [35]: 82.3%
- residual activity [36]: 100%
- residual activity [37]: 94%
- residual activity [38]: 96.2%
- residual activity [39]: 103%
- residual activity [40]: 96.3%
- residual activity [41]: 97.3%

Compound: Cn1c2ccccc2c2c3c(c4c5ccccc5n(CCC#N)c4c21)CNC3=O
- residual activity [1]: 73.6%
- residual activity [2]: 85.3%
- residual activity [3]: 102%
- residual activity [4]: 88.1%
- residual activity [5]: 55.2%
- residual activity [6]: 102%
- residual activity [7]: 97.5%
- residual activity [8]: 93.3%
- residual activity [9]: 104%
- residual activity [10]: 102%
- residual activity [11]: 73.3%
- residual activity [12]: 9.91%
- residual activity [13]: 46.3%
- residual activity [14]: 48.9%
- residual activity [15]: 90.6%
- residual activity [16]: 44.4%
- residual activity [17]: 38.9%
- residual activity [18]: 96.8%
- residual activity [19]: 6.43%
- residual activity [20]: 5.58%
- residual activity [21]: 45.3%
- residual activity [42]: 85.8%
- residual activity [22]: 104%
- residual activity [23]: 83.7%
- residual activity [24]: 11.8%
- residual activity [25]: 13.9%
- residual activity [26]: 59.9%
- residual activity [27]: 34.8%
- residual activity [28]: 49.1%
- residual activity [29]: 0.815%
- residual activity [30]: 0.198%
- residual activity [31]: 102%
- residual activity [32]: 8.4%
- residual activity [33]: 28.2%
- residual activity [34]: 26.7%
- residual activity [35]: 29.9%
- residual activity [36]: 26.5%
- residual activity [37]: 13.3%
- residual activity [39]: 10.1%
- residual activity [40]: 85.4%
- residual activity [41]: 93.1%

Source: the kinase profiling compilation of Christmann-Franck et al. (2016)
